Conditions: Liquid, Vibrating tube method

CCCCCCO [hexan-1-ol]
Conditions	mass density [kg/m3]
293.15 K, 100 kPa	818.6
293.15 K, 10000 kPa	824.8
293.15 K, 20000 kPa	830.9
293.15 K, 30000 kPa	836.4
293.15 K, 40000 kPa	841.6
293.15 K, 50000 kPa	846.5
293.15 K, 60000 kPa	851.1
293.15 K, 70000 kPa	855.5
293.15 K, 80000 kPa	859.8
293.15 K, 90000 kPa	863.7
293.15 K, 100000 kPa	867.9
293.15 K, 110000 kPa	871.5
293.15 K, 120000 kPa	875.2
293.15 K, 130000 kPa	878.7
293.15 K, 140000 kPa	882.2
303.15 K, 100 kPa	811.5
303.15 K, 10000 kPa	818.2
303.15 K, 20000 kPa	824.1
303.15 K, 30000 kPa	830
303.15 K, 40000 kPa	835.1
303.15 K, 50000 kPa	840.5
303.15 K, 60000 kPa	845.3
303.15 K, 70000 kPa	849.8
303.15 K, 80000 kPa	854.2
303.15 K, 90000 kPa	858.4
303.15 K, 100000 kPa	862.4
303.15 K, 110000 kPa	866.3
303.15 K, 120000 kPa	870
303.15 K, 130000 kPa	873.6
303.15 K, 140000 kPa	877.1
313.15 K, 100 kPa	804.2
313.15 K, 10000 kPa	811.1
313.15 K, 20000 kPa	817.4
313.15 K, 30000 kPa	823.5
313.15 K, 40000 kPa	829
313.15 K, 50000 kPa	834.4
313.15 K, 60000 kPa	839.4
313.15 K, 70000 kPa	844.3
313.15 K, 80000 kPa	848.7
313.15 K, 90000 kPa	853.1
313.15 K, 100000 kPa	857.1
313.15 K, 110000 kPa	861.2
313.15 K, 120000 kPa	865.1
313.15 K, 130000 kPa	868.7
313.15 K, 140000 kPa	872.5
323.15 K, 100 kPa	797.3
323.15 K, 10000 kPa	804.5
323.15 K, 20000 kPa	811.2
323.15 K, 30000 kPa	817.4
323.15 K, 40000 kPa	823.3
323.15 K, 50000 kPa	828.7
323.15 K, 60000 kPa	833.8
323.15 K, 70000 kPa	838.5
323.15 K, 80000 kPa	843.1
323.15 K, 90000 kPa	847.6
323.15 K, 100000 kPa	851.8
323.15 K, 110000 kPa	856
323.15 K, 120000 kPa	860
323.15 K, 130000 kPa	863.7
323.15 K, 140000 kPa	867.3
333.15 K, 100 kPa	789.7
333.15 K, 10000 kPa	797.2
333.15 K, 20000 kPa	804.3
333.15 K, 30000 kPa	810.8
333.15 K, 40000 kPa	817
333.15 K, 50000 kPa	822.7
333.15 K, 60000 kPa	828
333.15 K, 70000 kPa	832.8
333.15 K, 80000 kPa	837.6
333.15 K, 90000 kPa	842.5
333.15 K, 100000 kPa	846.8
333.15 K, 110000 kPa	850.8
333.15 K, 120000 kPa	854.4
333.15 K, 130000 kPa	858.5
333.15 K, 140000 kPa	862.2
343.15 K, 100 kPa	781.9
343.15 K, 10000 kPa	790.2
343.15 K, 20000 kPa	797.6
343.15 K, 30000 kPa	804.4
343.15 K, 40000 kPa	810.6
343.15 K, 50000 kPa	816.4
343.15 K, 60000 kPa	822.1
343.15 K, 70000 kPa	827.3
343.15 K, 80000 kPa	832.1
343.15 K, 90000 kPa	836.9
343.15 K, 100000 kPa	841.4
343.15 K, 110000 kPa	845.7
343.15 K, 120000 kPa	849.7
343.15 K, 130000 kPa	853.6
343.15 K, 140000 kPa	857.5
353.15 K, 100 kPa	773.8
353.15 K, 10000 kPa	782.3
353.15 K, 20000 kPa	790.1
353.15 K, 30000 kPa	797.3
353.15 K, 40000 kPa	803.8
353.15 K, 50000 kPa	810
353.15 K, 60000 kPa	815.6
353.15 K, 70000 kPa	821
353.15 K, 80000 kPa	826.2
353.15 K, 90000 kPa	831.1
353.15 K, 100000 kPa	835.6
353.15 K, 110000 kPa	840
353.15 K, 120000 kPa	844.3
353.15 K, 130000 kPa	848.4
353.15 K, 140000 kPa	852.3
363.15 K, 100 kPa	765.5
363.15 K, 10000 kPa	774.9
363.15 K, 20000 kPa	783.1
363.15 K, 30000 kPa	790.6
363.15 K, 40000 kPa	797.5
363.15 K, 50000 kPa	803.8
363.15 K, 60000 kPa	809.7
363.15 K, 70000 kPa	815.4
363.15 K, 80000 kPa	820.6
363.15 K, 90000 kPa	825.6
363.15 K, 100000 kPa	830.3
363.15 K, 110000 kPa	834.8
363.15 K, 120000 kPa	839.2
363.15 K, 130000 kPa	843.3
363.15 K, 140000 kPa	847.2
373.15 K, 100 kPa	756.9
373.15 K, 10000 kPa	766.6
373.15 K, 20000 kPa	775.4
373.15 K, 30000 kPa	783.4
373.15 K, 40000 kPa	790.4
373.15 K, 50000 kPa	796.9
373.15 K, 60000 kPa	803.1
373.15 K, 70000 kPa	808.9
373.15 K, 80000 kPa	814.2
373.15 K, 90000 kPa	819.5
373.15 K, 100000 kPa	824.4
373.15 K, 110000 kPa	829.2
373.15 K, 120000 kPa	833.3
373.15 K, 130000 kPa	837.7
373.15 K, 140000 kPa	841.7
383.15 K, 100 kPa	748.2
383.15 K, 10000 kPa	759.1
383.15 K, 20000 kPa	767.8
383.15 K, 30000 kPa	776.5
383.15 K, 40000 kPa	783.5
383.15 K, 50000 kPa	790.4
383.15 K, 60000 kPa	796.8
383.15 K, 70000 kPa	802.6
383.15 K, 80000 kPa	808.3
383.15 K, 90000 kPa	813.7
383.15 K, 100000 kPa	818.7
383.15 K, 110000 kPa	823.4
383.15 K, 120000 kPa	828
383.15 K, 130000 kPa	832.3
383.15 K, 140000 kPa	836.5
393.15 K, 100 kPa	739.4
393.15 K, 10000 kPa	750.8
393.15 K, 20000 kPa	760.5
393.15 K, 30000 kPa	768.8
393.15 K, 40000 kPa	777
393.15 K, 50000 kPa	783.7
393.15 K, 60000 kPa	790.3
393.15 K, 70000 kPa	796.5
393.15 K, 80000 kPa	802.5
393.15 K, 90000 kPa	807.8
393.15 K, 100000 kPa	813
393.15 K, 110000 kPa	818.1
393.15 K, 120000 kPa	822.6
393.15 K, 130000 kPa	827.2
393.15 K, 140000 kPa	831.5
403.15 K, 100 kPa	730.2
403.15 K, 10000 kPa	741.8
403.15 K, 20000 kPa	751.9
403.15 K, 30000 kPa	761.1
403.15 K, 40000 kPa	769.3
403.15 K, 50000 kPa	776.9
403.15 K, 60000 kPa	783.7
403.15 K, 70000 kPa	790.1
403.15 K, 80000 kPa	796.2
403.15 K, 90000 kPa	801.8
403.15 K, 100000 kPa	807.2
403.15 K, 110000 kPa	812.3
403.15 K, 120000 kPa	817.1
403.15 K, 130000 kPa	821.8
403.15 K, 140000 kPa	826.5

— the NIST ThermoML archive (doi:10.1016/j.fluid.2012.02.007)
